{
  "source": "PubChem BioAssay AID2060893",
  "about": "(Molecular Pharmacology Branch, DTP, NCI, 2025);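 also: spheroids exposed to agents for seven days before readout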",
  "system": "K86415-001-R-J1-PDC complex spheroids, viability",
  "assay": "Anticancer human tumor K86415-001-R-J1-PDC patient-derived lung adenocarcinoma cell line growth inhibition [RAS]",
  "conditions": "for IC50: curve of first compound; for viability, T/C: stronger effect = lower value",
  "summary_of_the_method": "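Agents were tested in combination matrices in half-log decrements from a top concentration at or near clinical Cmax (10 microM if undetermined). Targets were multi-cell spheroids of tumour lines plus HUVEC and MSC stromal cells.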",
  "data": [
    {"smiles": "CCC(CC)c1cc(NC2CCC(N)C2)n2nccc2n1", "note": "(centres undefined) + CCn1c(-c2cc(N3CCN(C)CC3)cnc2C(C)OC)c2c3cc(ccc31)-c1csc(n1)CC(NC(=O)C1CC1C)C(=O)N1CCCC(N1)C(=O)OCC(C)(C)C2", "values": [
      {"measurement": "IC50", "setting": "second compound 0.000949 µM", "result": 1180, "unit": "nM"},
      {"measurement": "IC50", "setting": "second compound 0.003 µM", "result": "< 31.6", "unit": "nM"},
      {"measurement": "IC50", "setting": "second compound 0.00949 µM", "result": "< 31.6", "unit": "nM"},
      {"measurement": "IC50", "setting": "second compound 0.03 µM", "result": "< 31.6", "unit": "nM"},
      {"measurement": "IC50", "setting": "second compound 0.0949 µM", "result": "< 31.6", "unit": "nM"},
      {"measurement": "IC50", "setting": "second compound 0.3 µM", "result": "< 31.6", "unit": "nM"},
      {"measurement": "viability, T/C", "setting": "second compound 0.000949 µM, first compound 0.0316 µM", "result": 46.1, "unit": "%"},
      {"measurement": "viability, T/C", "setting": "second compound 0.000949 µM, first compound 0.1 µM", "result": 48.5, "unit": "%"},
      {"measurement": "viability, T/C", "setting": "second compound 0.000949 µM, first compound 0.316 µM", "result": 56.8, "unit": "%"},
      {"measurement": "viability, T/C", "setting": "second compound 0.000949 µM, first compound 1 µM", "result": 79, "unit": "%"},
      {"measurement": "viability, T/C", "setting": "second compound 0.000949 µM, first compound 3.16 µM", "result": 3.84, "unit": "%"},
      {"measurement": "viability, T/C", "setting": "second compound 0.000949 µM, first compound 10 µM", "result": 4.58, "unit": "%"},
      {"measurement": "viability, T/C", "setting": "second compound 0.003 µM, first compound 0.0316 µM", "result": 25.1, "unit": "%"},
      {"measurement": "viability, T/C", "setting": "second compound 0.003 µM, first compound 0.1 µM", "result": 26.1, "unit": "%"},
      {"measurement": "viability, T/C", "setting": "second compound 0.003 µM, first compound 0.316 µM", "result": 27.8, "unit": "%"},
      {"measurement": "viability, T/C", "setting": "second compound 0.003 µM, first compound 1 µM", "result": 36.2, "unit": "%"},
      {"measurement": "viability, T/C", "setting": "second compound 0.003 µM, first compound 3.16 µM", "result": 4.27, "unit": "%"},
      {"measurement": "viability, T/C", "setting": "second compound 0.003 µM, first compound 10 µM", "result": 4.26, "unit": "%"},
      {"measurement": "viability, T/C", "setting": "second compound 0.00949 µM, first compound 0.0316 µM", "result": 9.9, "unit": "%"},
      {"measurement": "viability, T/C", "setting": "second compound 0.00949 µM, first compound 0.1 µM", "result": 11.2, "unit": "%"},
      {"measurement": "viability, T/C", "setting": "second compound 0.00949 µM, first compound 0.316 µM", "result": 12.9, "unit": "%"},
      {"measurement": "viability, T/C", "setting": "second compound 0.00949 µM, first compound 1 µM", "result": 11.8, "unit": "%"},
      {"measurement": "viability, T/C", "setting": "second compound 0.00949 µM, first compound 3.16 µM", "result": 3.06, "unit": "%"},
      {"measurement": "viability, T/C", "setting": "second compound 0.00949 µM, first compound 10 µM", "result": 3.75, "unit": "%"},
      {"measurement": "viability, T/C", "setting": "second compound 0.03 µM, first compound 0.0316 µM", "result": 5.14, "unit": "%"},
      {"measurement": "viability, T/C", "setting": "second compound 0.03 µM, first compound 0.1 µM", "result": 6.25, "unit": "%"},
      {"measurement": "viability, T/C", "setting": "second compound 0.03 µM, first compound 0.316 µM", "result": 7.94, "unit": "%"},
      {"measurement": "viability, T/C", "setting": "second compound 0.03 µM, first compound 1 µM", "result": 6.31, "unit": "%"},
      {"measurement": "viability, T/C", "setting": "second compound 0.03 µM, first compound 3.16 µM", "result": 3.03, "unit": "%"},
      {"measurement": "viability, T/C", "setting": "second compound 0.03 µM, first compound 10 µM", "result": 3.65, "unit": "%"},
      {"measurement": "viability, T/C", "setting": "second compound 0.0949 µM, first compound 0.0316 µM", "result": 4.23, "unit": "%"},
      {"measurement": "viability, T/C", "setting": "second compound 0.0949 µM, first compound 0.1 µM", "result": 3.98, "unit": "%"},
      {"measurement": "viability, T/C", "setting": "second compound 0.0949 µM, first compound 0.316 µM", "result": 3.55, "unit": "%"},
      {"measurement": "viability, T/C", "setting": "second compound 0.0949 µM, first compound 1 µM", "result": 2.72, "unit": "%"},
      {"measurement": "viability, T/C", "setting": "second compound 0.0949 µM, first compound 3.16 µM", "result": 2.97, "unit": "%"},
      {"measurement": "viability, T/C", "setting": "second compound 0.0949 µM, first compound 10 µM", "result": 3.31, "unit": "%"},
      {"measurement": "viability, T/C", "setting": "second compound 0.3 µM, first compound 0.0316 µM", "result": 2.9, "unit": "%"},
      {"measurement": "viability, T/C", "setting": "second compound 0.3 µM, first compound 0.1 µM", "result": 2.91, "unit": "%"},
      {"measurement": "viability, T/C", "setting": "second compound 0.3 µM, first compound 0.316 µM", "result": 3.27, "unit": "%"},
      {"measurement": "viability, T/C", "setting": "second compound 0.3 µM, first compound 1 µM", "result": 2.5, "unit": "%"},
      {"measurement": "viability, T/C", "setting": "second compound 0.3 µM, first compound 3.16 µM", "result": 4.29, "unit": "%"},
      {"measurement": "viability, T/C", "setting": "second compound 0.3 µM, first compound 10 µM", "result": 3.48, "unit": "%"}
    ]},
    {"smiles": "Cc1nc(N2CCC3(CC2)COC(C)C3N)c(CO)nc1Sc1ccnc(N)c1Cl", "note": "(centres undefined) + C=CC(=O)N1CCN(c2nc(OCC3CCCN3C)nc3c(F)c(-c4nc(N)cc(C)c4C(F)(F)F)c(Cl)cc23)C(C)C1", "values": [
      {"measurement": "IC50", "setting": "second compound 0.00316 µM", "result": "< 31.6", "unit": "nM"},
      {"measurement": "IC50", "setting": "second compound 0.01 µM", "result": "< 31.6", "unit": "nM"},
      {"measurement": "IC50", "setting": "second compound 0.0316 µM", "result": "< 31.6", "unit": "nM"},
      {"measurement": "IC50", "setting": "second compound 0.1 µM", "result": "< 31.6", "unit": "nM"},
      {"measurement": "IC50", "setting": "second compound 0.316 µM", "result": "< 31.6", "unit": "nM"},
      {"measurement": "IC50", "setting": "second compound 1 µM", "result": "< 31.6", "unit": "nM"},
      {"measurement": "viability, T/C", "setting": "second compound 0.00316 µM, first compound 0.0316 µM", "result": 11.5, "unit": "%"},
      {"measurement": "viability, T/C", "setting": "second compound 0.00316 µM, first compound 0.1 µM", "result": 8.95, "unit": "%"},
      {"measurement": "viability, T/C", "setting": "second compound 0.00316 µM, first compound 0.316 µM", "result": 6.72, "unit": "%"},
      {"measurement": "viability, T/C", "setting": "second compound 0.00316 µM, first compound 1 µM", "result": 5.03, "unit": "%"},
      {"measurement": "viability, T/C", "setting": "second compound 0.00316 µM, first compound 3.16 µM", "result": 3.59, "unit": "%"},
      {"measurement": "viability, T/C", "setting": "second compound 0.00316 µM, first compound 10 µM", "result": 4.75, "unit": "%"},
      {"measurement": "viability, T/C", "setting": "second compound 0.01 µM, first compound 0.0316 µM", "result": 12.1, "unit": "%"},
      {"measurement": "viability, T/C", "setting": "second compound 0.01 µM, first compound 0.1 µM", "result": 8.08, "unit": "%"},
      {"measurement": "viability, T/C", "setting": "second compound 0.01 µM, first compound 0.316 µM", "result": 5.96, "unit": "%"},
      {"measurement": "viability, T/C", "setting": "second compound 0.01 µM, first compound 1 µM", "result": 4.7, "unit": "%"},
      {"measurement": "viability, T/C", "setting": "second compound 0.01 µM, first compound 3.16 µM", "result": 4.74, "unit": "%"},
      {"measurement": "viability, T/C", "setting": "second compound 0.01 µM, first compound 10 µM", "result": 5.17, "unit": "%"},
      {"measurement": "viability, T/C", "setting": "second compound 0.0316 µM, first compound 0.0316 µM", "result": 9.15, "unit": "%"},
      {"measurement": "viability, T/C", "setting": "second compound 0.0316 µM, first compound 0.1 µM", "result": 6.95, "unit": "%"},
      {"measurement": "viability, T/C", "setting": "second compound 0.0316 µM, first compound 0.316 µM", "result": 4.4, "unit": "%"},
      {"measurement": "viability, T/C", "setting": "second compound 0.0316 µM, first compound 1 µM", "result": 3.81, "unit": "%"},
      {"measurement": "viability, T/C", "setting": "second compound 0.0316 µM, first compound 3.16 µM", "result": 3.74, "unit": "%"},
      {"measurement": "viability, T/C", "setting": "second compound 0.0316 µM, first compound 10 µM", "result": 3.64, "unit": "%"},
      {"measurement": "viability, T/C", "setting": "second compound 0.1 µM, first compound 0.0316 µM", "result": 8.22, "unit": "%"},
      {"measurement": "viability, T/C", "setting": "second compound 0.1 µM, first compound 0.1 µM", "result": 5.86, "unit": "%"},
      {"measurement": "viability, T/C", "setting": "second compound 0.1 µM, first compound 0.316 µM", "result": 5.7, "unit": "%"},
      {"measurement": "viability, T/C", "setting": "second compound 0.1 µM, first compound 1 µM", "result": 3.75, "unit": "%"},
      {"measurement": "viability, T/C", "setting": "second compound 0.1 µM, first compound 3.16 µM", "result": 4.37, "unit": "%"},
      {"measurement": "viability, T/C", "setting": "second compound 0.1 µM, first compound 10 µM", "result": 3.87, "unit": "%"},
      {"measurement": "viability, T/C", "setting": "second compound 0.316 µM, first compound 0.0316 µM", "result": 7.37, "unit": "%"},
      {"measurement": "viability, T/C", "setting": "second compound 0.316 µM, first compound 0.1 µM", "result": 6.35, "unit": "%"},
      {"measurement": "viability, T/C", "setting": "second compound 0.316 µM, first compound 0.316 µM", "result": 4.21, "unit": "%"},
      {"measurement": "viability, T/C", "setting": "second compound 0.316 µM, first compound 1 µM", "result": 4.09, "unit": "%"},
      {"measurement": "viability, T/C", "setting": "second compound 0.316 µM, first compound 3.16 µM", "result": 4.08, "unit": "%"},
      {"measurement": "viability, T/C", "setting": "second compound 0.316 µM, first compound 10 µM", "result": 3.28, "unit": "%"},
      {"measurement": "viability, T/C", "setting": "second compound 1 µM, first compound 0.0316 µM", "result": 7.46, "unit": "%"},
      {"measurement": "viability, T/C", "setting": "second compound 1 µM, first compound 0.1 µM", "result": 7.12, "unit": "%"},
      {"measurement": "viability, T/C", "setting": "second compound 1 µM, first compound 0.316 µM", "result": 6.04, "unit": "%"},
      {"measurement": "viability, T/C", "setting": "second compound 1 µM, first compound 1 µM", "result": 4.71, "unit": "%"},
      {"measurement": "viability, T/C", "setting": "second compound 1 µM, first compound 3.16 µM", "result": 4.06, "unit": "%"},
      {"measurement": "viability, T/C", "setting": "second compound 1 µM, first compound 10 µM", "result": 4.08, "unit": "%"}
    ]}
  ]
}
